Data reported in patent US6080859A, “Pyrroloindole derivatives and intermediates in producing the same” (priority 1997, dated 2000).
Where a name gives a salt, the structure may show the parent alone. Read-outs that look alike come from different tables or passages of the source.

Experiments:
[1] = Decomposition reaction under chemical conditions (half life in buffer solution of pH 7.4, HPLC); assay type: physicochemical; settings: ph 7.4 buffer/dma, pH 7.4 buffer / N,N-dimethylacetamide 50 v/v%, 37° C.
Procedure: Decomposition reaction under chemical conditions:
A buffer solution of pH 7.4 was prepared by mixing suitably an aqueous 0.1 M citric acid solution and an aqueous 0.2 M disodium hydrogenphosphate solution. The buffer solution was diluted tenfold with water. This buffer solution was further dissolved in N,N-dimethylacetamide at a concentration of 50 v/v%, and its pH was adjusted to 7.4 by adding suitable amount of aqueous 0.1 M citric acid solution to prepare a buffer solution. The test compounds were dissolved respectively in the buffer solution at a concentration of 5 μM to prepare the test sample solutions. The test sample solutions were placed respectively in a glass vial, and the glass vials were kept at 37° C. in a thermostat. The change of the concentration of remaining test compounds with lapse of time was determined quantitatively intermittently by high performance liquid chromatography (HPLC) to measure the half life (t1/2 : hours).

[2] = tested on: M5076/ADR cells (adriamycin-resistant strain); experiment: Evaluation with mouse bearing M5076/ADR cells (adriamycin-resistant strain) transplanted subcutaneously; assay type: in vivo, mouse (female, BDFI strain); settings: 1.0 mg/kg, single injection into tail vein nine days after transplantation; tumor weighed 13 days after injection
Procedure: Evaluation with mouse bearing M5076/ADR cells (adriamycin-resistant strain) transplanted subcutaneously:
M5076/ADR cells (adriamycin-resistant strain) were transplanted subcutaneously at the axillary region of female mice (BDFI strain, 8 week age) in an amount of 3.0×10^6 cells for an individual mouse. Nine days after the transplantation, the test compound solution was injected once into the tail vein. After 13 days from the injection, the tumor was excised and weighed. The antitumor activity was evaluated by the ratio (T/C) of the average tumor weight (T) of the administrated group to the average tumor weight (C) of control group to which solvent was administrated.

[3] = read-out: Half life (t1/2) (converted)
[4] = * Average of the half lives of the diastereomers, read-out: Half life (t1/2), average of the half lives of the diastereomers (converted)

| SMILES | half-life at 5 µM [1, 3] | half-life at 5 µM [1, 4] | T/C (ratio of average tumor weight of administrated group to control group) [2] |
| --- | --- | --- | --- |
| COC(=O)c1c(C(F)(F)F)[nH]c2c(OC(=O)N3CCC[C@H]3CN3CCCC3)cc3c(c12)[C@H](CCl)CN3C(=O)c1cc2cc(NC(=O)c3cc4cccc(OC)c4o3)ccc2[nH]1 [Example 3, methyl (1S)-chloromethyl-5-{[(2S)-(pyrrolidin-l-ylmethyl)pyrrolidin-1-ylcarbonyl]oxy}-3-[5-(7-methoxybenzofuran-2-ylcarbonyl)amino-1H-indol-2-ylcarbonyl]-7-trifluoromethyl-1,2,3,6-tetrahydropyrrolo[3,2-e]indole-8-carboxylate] | 1 h |  |  |
| COC(=O)c1c(C(F)(F)F)[nH]c2c(OC(=O)N3C[C@H](O)C[C@H]3CO)cc3c(c12)[C@H](CCl)CN3C(=O)c1cc2cc(NC(=O)c3cc4cccc(OC)c4o3)ccc2[nH]1 [Example 2, methyl (1S) -chloromethyl-5-{[(4R)-hydroxy-(2S)-hydroxymethylpyrrolidin-1-ylcarbonyl]oxy}-3-[5-(7-methoxybenzofuran-2-ylcarbonyl)amino-1H-indol-2-ylcarbonyl]-7-trifluoromethyl-1,2,3,6-tetrahydropyrrolo[3,2-e]indole-8-carboxylate] | > 8 h |  |  |
| COC(=O)c1c(C(F)(F)F)[nH]c2c(OC(=O)N3CCCCC3CO)cc3c(c12)[C@H](CCl)CN3C(=O)c1cc2cc(NC(=O)c3cc4cccc(OC)c4o3)ccc2[nH]1 (mixture of isomers) [Example 4, methyl (1S)-chloromethyl-5-{[(2RS)-hydroxymethylpiperidin-1-ylcarbonyl]oxy}-3-[5-(7-methoxybenzofuran-2-ylcarbonyl)amino-1H-indol-2-ylcarbonyl]-7-trifluoromethyl-1,2,3,6-tetrahydropyrrolo[3,2-e]indole-8-carboxylate] |  | > 8 h | 0.01 |
| COC(=O)c1c(C(F)(F)F)[nH]c2c(OC(=O)N3CCN(C)CC3CCO)cc3c(c12)[C@H](CCl)CN3C(=O)c1cc2cc(NC(=O)c3cc4cccc(OC)c4o3)ccc2[nH]1 (stereo partly drawn) [Example 6, hydrochloride of methyl (1S)-chloromethyl-5-{[(2RS)-hydroxyethyl-4-methylpiperazin-1-ylcarbonyl]oxy}-3-[5-(7-methoxybenzofuran-2-ylcarbonyl)amino-1H-indol-2-ylcarbonyl]-7-trifluoromethyl-1,2,3,6-tetrahydropyrrolo[3,2-e]indole-8-carboxylate] |  | 5.8 h | 0.02 |
| COC(=O)c1c(C(F)(F)F)[nH]c2c(OC(=O)N3CCN(C)CC3CO)cc3c(c12)[C@H](CCl)CN3C(=O)c1cc2cc(NC(=O)c3cc4cccc(OC)c4o3)ccc2[nH]1 (stereo partly drawn) [Example 5, hydrochloride of methyl (1S)-chloromethyl-5-{[(2RS)-hydroxymethyl-4-methylpiperazin-1-ylcarbonyl]oxy}-3-[5-(7-methoxybenzofuran-2-ylcarbonyl)amino-1H-indol-2-ylcarbonyl]-7-trifluoromethyl-1,2,3,6-tetrahydropyrrolo[3,2-e]indole-8-carboxylate] |  | 1.7 h | 0.01 |
| COC(=O)c1c(C(F)(F)F)[nH]c2c(OC(=O)N3CCC[C@H]3CO)cc3c(c12)[C@H](CCl)CN3C(=O)c1cc2cc(NC(=O)c3cc4cccc(OC)c4o3)ccc2[nH]1 [Example 1, methyl (1S)-chloromethyl-5-{[(2S)-hydroxymethylpyrrolidin-1-ylcarbonyl]oxy}-3-[5-(7-methoxybenzofuran-2-ylcarbonyl)amino-1H-indol-2-ylcarbonyl]-7-trifluoromethyl-1,2,3,6-tetrahydropyrrolo[3,2-e]indole-8-carboxylate] | > 8 h |  |  |
| COC(=O)c1c(C(F)(F)F)[nH]c2c(OC(=O)N3CCOCC3CO)cc3c(c12)[C@H](CCl)CN3C(=O)c1cc2cc(NC(=O)c3cc4cccc(OC)c4o3)ccc2[nH]1 (mixture of isomers) [Example 7, methyl (1S)-chloromethyl-5-{[(3RS)-hydroxymethylmorpholin-4-ylcarbonyl]oxy}-3-[5-(7-methoxybenzofuran-2-ylcarbonyl)amino-1H-indol-2-ylcarbonyl]-7-trifluoromethyl-1,2,3,6-tetrahydropyrrolo[3,2-e]indole-8-carboxylate] |  | 1.7 h |  |
